Test results published in patent US6737383B1, “Herbicidal oxadiazolidines” (priority 1999, dated 2004).

Key:
rape = experiment: Test B pre/postemergence rape; assay type: in vivo, Brassica napus
How it was run: (§1)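 Herbicidal effect was estimated by eye on a ten-point control scale after plants spent twelve to sixteen days in a greenhouse following soil or foliar treatment. Foliar sprays targeted plants at one to four leaves; all doses were formulated in a non-phytotoxic solvent with surfactant.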

duck salad = experiment: Test B flood test duck salad; assay type: in vivo, Heteranthera limosa
How it was run: (§2)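 Plants were grown to the 2-leaf stage before treatment with test chemical, then held in a greenhouse for twelve to sixteen days. Injury was visually rated against untreated controls on a 0–10 scale, where 0 is no effect and 10 is complete control.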

soybean = experiment: Test B pre/postemergence soybean; assay type: in vivo, Glycine max
How it was run: as §1

giant foxtail = experiment: Test B pre/postemergence giant foxtail; assay type: in vivo, Setaria faberii
How it was run: as §1

velvetleaf = experiment: Test B pre/postemergence velvetleaf; assay type: in vivo, Abutilon theophrasti
How it was run: as §1

corn = experiment: Test B pre/postemergence corn; assay type: in vivo, Zea mays
How it was run: as §1

cocklebur = experiment: Test B pre/postemergence cocklebur; assay type: in vivo, Xanthium strumarium
How it was run: as §1

crabgrass = experiment: Test B pre/postemergence crabgrass; assay type: in vivo, Digitaria sanguinalis
How it was run: as §1

rice = experiment: Test B flood test rice; assay type: in vivo, Oryza sativa
How it was run: as §2

bedstraw = experiment: Test B pre/postemergence bedstraw; assay type: in vivo, Galium aparine
How it was run: as §1

purple nutsedge = experiment: Test B pre/postemergence purple nutsedge; assay type: in vivo, Cyperus rotundus
How it was run: as §1

wheat = experiment: Test B pre/postemergence wheat; assay type: in vivo, Triticum aestivum
How it was run: as §1

smallflower flatsedge = experiment: Test B flood test smallflower flatsedge; assay type: in vivo, Cyperus difformis
How it was run: as §2

morningglory = experiment: Test B pre/postemergence morningglory; assay type: in vivo, Ipomoea hederacea
How it was run: as §1

wild oat = experiment: Test B pre/postemergence wild oat; assay type: in vivo, Avena fatua
How it was run: as §1

pigweed = experiment: Test B pre/postemergence pigweed; assay type: in vivo, Amaranthus retroflexus
How it was run: as §1

[1] = Postemergence, Rate 62 g/ha, scale 0 to 10, 0 is no effect, 10 is complete control
[2] = Postemergence, Rate 250 g/ha, scale 0 to 10, 0 no effect, 10 complete control
[3] = Preemergence, Rate 62 g/ha, scale 0 to 10 (0 no effect, 10 complete control)
[4] = Preemergence, Rate 125 g/ha, scale 0 to 10 (0 no effect, 10 complete control)
[5] = Preemergence, Rate 250 g/ha, scale of 0 to 10 where 0 is no effect and 10 is complete control
[6] = Preemergence, Rate 500 g/ha, scale 0 (no effect) to 10 (complete control)
[7] = Rate 125 g/ha, Postemergence, scale 0 to 10, 0 no effect, 10 complete control
[8] = Rate 500 g/ha, Postemergence, scale 0 to 10, 0 no effect, 10 complete control
[9] = Rate 125 g/ha, Postemergence section (flood test species), scale 0 to 10, 0 no effect, 10 complete control
[10] = Rate 500 g/ha, listed under Postemergence (flood test species), scale 0 to 10, 0 no effect, 10 complete control
[11] = flood test, listed under Postemergence, Rate 250 g/ha, scale 0 to 10, 0 no effect, 10 complete control

COc1cccc(C)c1-n1c(=O)on(C(=O)N(c2ccc(F)cc2)C(C)C)c1=O [Compound 62]
Rape plant response rating (rape; [1]): 0 | Rape plant response rating (rape; [2]): 0 | Rape plant response rating (rape; [3]): 0 | Plant response rating, Rape (rape; [4]): 0 | Plant response rating, Rape (rape; [5]): 0 | Rape plant response rating (rape; [6]): 0 | Rape plant response rating (rape; [7]): 0 | Rape plant response rating (rape; [8]): 0 | Ducksalad plant response rating (duck salad; [1]): 0 | Ducksalad plant response rating (duck salad; [9]): 0 | Ducksalad plant response rating (duck salad; [10]): 0 | Ducksalad plant response rating (duck salad; [11]): 0 | Soybean plant response rating (soybean; [1]): 1 | Soybean plant response rating (soybean; [2]): 2 | Soybean plant response rating (soybean; [3]): 0 | Plant response rating, Soybean (soybean; [4]): 0 | Plant response rating, Soybean (soybean; [5]): 0 | Soybean plant response rating (soybean; [6]): 0 | Soybean plant response rating (soybean; [7]): 1 | Soybean plant response rating (soybean; [8]): 3 | Giant foxtail plant response rating (giant foxtail; [1]): 0 | Giant foxtail plant response rating (giant foxtail; [2]): 0 | Giant foxtail plant response rating (giant foxtail; [3]): 5 | Plant response rating, Giant foxtail (giant foxtail; [4]): 5 | Plant response rating, Giant foxtail (giant foxtail; [5]): 9 | Giant foxtail plant response rating (giant foxtail; [6]): 10 | Giant foxtail plant response rating (giant foxtail; [7]): 0 | Giant foxtail plant response rating (giant foxtail; [8]): 2 | Velvetleaf plant response rating (velvetleaf; [1]): 0 | Velvetleaf plant response rating (velvetleaf; [2]): 2 | Velvetleaf plant response rating (velvetleaf; [3]): 0 | Plant response rating, Velvetleaf (velvetleaf; [4]): 0 | Plant response rating, Velvetleaf (velvetleaf; [5]): 0 | Velvetleaf plant response rating (velvetleaf; [6]): 0 | Velvetleaf plant response rating (velvetleaf; [7]): 0 | Velvetleaf plant response rating (velvetleaf; [8]): 7 | Corn plant response rating (corn; [1]): 0 | Corn plant response rating (corn; [2]): 0 | Corn plant response rating (corn; [3]): 0 | Plant response rating, Corn (corn; [4]): 0 | Plant response rating, Corn (corn; [5]): 0 | Corn plant response rating (corn; [6]): 0 | Corn plant response rating (corn; [7]): 0 | Corn plant response rating (corn; [8]): 0 | Cocklebur plant response rating (cocklebur; [1]): 0 | Cocklebur plant response rating (cocklebur; [2]): 6 | Cocklebur plant response rating (cocklebur; [3]): 0 | Plant response rating, Cocklebur (cocklebur; [5]): 0 | Cocklebur plant response rating (cocklebur; [6]): 5 | Cocklebur plant response rating (cocklebur; [7]): 4 | Cocklebur plant response rating (cocklebur; [8]): 6 | Crabgrass plant response rating (crabgrass; [1]): 0 | Crabgrass plant response rating (crabgrass; [2]): 0 | Crabgrass plant response rating (crabgrass; [3]): 2 | Plant response rating, Crabgrass (crabgrass; [4]): 3 | Plant response rating, Crabgrass (crabgrass; [5]): 6 | Crabgrass plant response rating (crabgrass; [6]): 9 | Crabgrass plant response rating (crabgrass; [7]): 0 | Crabgrass plant response rating (crabgrass; [8]): 7 | Rice plant response rating (rice; [1]): 0 | Rice plant response rating (rice; [9]): 0 | Rice plant response rating (rice; [10]): 0 | Rice plant response rating (rice; [11]): 0 | Bedstraw plant response rating (bedstraw; [1]): 0 | Bedstraw plant response rating (bedstraw; [2]): 2 | Bedstraw plant response rating (bedstraw; [3]): 0 | Plant response rating, Bedstraw (bedstraw; [4]): 0 | Plant response rating, Bedstraw (bedstraw; [5]): 0 | Bedstraw plant response rating (bedstraw; [6]): 4 | Bedstraw plant response rating (bedstraw; [7]): 0 | Nutsedge plant response rating (purple nutsedge; [1]): 0 | Nutsedge plant response rating (purple nutsedge; [2]): 0 | Nutsedge plant response rating (purple nutsedge; [3]): 0 | Plant response rating, Nutsedge (purple nutsedge; [4]): 0 | Plant response rating, Nutsedge (purple nutsedge; [5]): 0 | Nutsedge plant response rating (purple nutsedge; [6]): 0 | Nutsedge plant response rating (purple nutsedge; [7]): 0 | Nutsedge plant response rating (purple nutsedge; [8]): 3 | Wheat plant response rating (wheat; [1]): 0 | Wheat plant response rating (wheat; [2]): 0 | Wheat plant response rating (wheat; [3]): 0 | Plant response rating, Wheat (wheat; [4]): 0 | Plant response rating, Wheat (wheat; [5]): 0 | Wheat plant response rating (wheat; [6]): 0 | Wheat plant response rating (wheat; [7]): 0 | Wheat plant response rating (wheat; [8]): 0 | S. Flatsedge plant response rating (smallflower flatsedge; [1]): 0 | S. Flatsedge plant response rating (smallflower flatsedge; [9]): 0 | S. Flatsedge plant response rating (smallflower flatsedge; [10]): 0 | S. Flatsedge plant response rating (smallflower flatsedge; [11]): 0 | Morningglory plant response rating (morningglory; [1]): 2 | Morningglory plant response rating (morningglory; [2]): 2 | Morningglory plant response rating (morningglory; [3]): 0 | Plant response rating, Morningglory (morningglory; [4]): 0 | Plant response rating, Morningglory (morningglory; [5]): 0 | Morningglory plant response rating (morningglory; [6]): 3 | Morningglory plant response rating (morningglory; [7]): 2 | Morningglory plant response rating (morningglory; [8]): 6 | Wild oats plant response rating (wild oat; [1]): 0 | Wild oats plant response rating (wild oat; [2]): 3 | Wild oats plant response rating (wild oat; [3]): 0 | Plant response rating, Wild oats (wild oat; [4]): 0 | Plant response rating, Wild oats (wild oat; [5]): 0 | Wild oats plant response rating (wild oat; [6]): 0 | Wild oats plant response rating (wild oat; [7]): 0 | Wild oats plant response rating (wild oat; [8]): 3 | Redroot pigweed plant response rating (pigweed; [1]): 0 | Redroot pigweed plant response rating (pigweed; [2]): 0 | Redroot pigweed plant response rating (pigweed; [3]): 0 | Plant response rating, Redroot pigweed (pigweed; [4]): 0 | Plant response rating, Redroot pigweed (pigweed; [5]): 0 | Redroot pigweed plant response rating (pigweed; [6]): 0 | Redroot pigweed plant response rating (pigweed; [7]): 0 | Redroot pigweed plant response rating (pigweed; [8]): 0
